Test results published in US20030068289A1, “Skin treatment” (Unilever Home & Personal Care USA, Division of Conopco, Inc., priority 2001, published 2003).

Columns and labels:
dandruff = conditions: 7 subjects; also decreased for placebo
Procedure: (§1) Panellists consisting of males and females were used. Their scalps were assessed to confirm they were suffering from dandruff. The scalps were divided into two, from the centre of the forehead to the nape of the neck. Four sites of similar scalp condition, two on each side of the head, were identified.
(§2) Panellists were assessed for scalp condition then suitable subjects given a placebo shampoo (ie. non anti-dandruff) to use for approximately 5 weeks. They were then asked to return, having not washed their hair or applied products to it for 48 hours. They were re-assessed then tape stripped at one site on each side o: the head ([…]). They then returned to be salon washed, by salon operators, 3 times their week with ½ of each head washed in the placebo and the other ½ in a shampoo containing 1% ZnPTO. After approximately 4 weeks, they were assessed and tape stripped again an adjacent sites to the first two.

scalp stratum corneum = tested on: scalp stratum corneum
Procedure: as §1, §2
Samples were collected by parting the hair and lightly swabbing with an alcohol swab to remove excess sebum. A total of eight sequential tapestrips were taken from each site. These were stored frozen until required for analysis.
The corneocytes were removed from the tapes by sonicating in methanol and the free lipid was extracted from them in a chloroform/methanol mixture, which was then dried under nitrogen. The residue was reconstituted in chloroform arid the lipid species separated on amino-propyl bonded silica gel columns.
The lipids were then separated and quantified using HPTLC. The lipids analysed were total fatty acids, cholesterol, triglycerides and ceramides. The ceramides were separated into the individual ceramides that are normally seen. The covalently bound lipids were not analysed here. The protein content of the samples were measured and the lipid levels expressed as ng lipid per μg protein. The individual ceramides were also expressed as relative % of total ceramides.

[1] = after vs before, significant only after the ZnPTO treatment

zinc pyrithione [ZnPTO]
Mean dandruff scores after treatment compared with before treatment (dandruff): decreased
Relative % lipids in scalp stratum corneum: Cholesterol (scalp stratum corneum; After ZnPTO, approx 4 weeks, spread 1.4 in row below, Before ZnPTO 11.6 ± 4.5): 8.8%
Relative % lipids in scalp stratum corneum: Ceramides (scalp stratum corneum; After ZnPTO, approx 4 weeks, spread 3.8 in row below, Before ZnPTO 31.0 ± 8.1): 16.4%
Relative % lipids in scalp stratum corneum: Fatty Acids (scalp stratum corneum; After ZnPTO, approx 4 weeks, spread 16.6 in row below, Before ZnPTO 36.0 ± 12.5): 31.8%
Relative % lipids in scalp stratum corneum: Triglycerides (scalp stratum corneum; After ZnPTO, approx 4 weeks, spread 19.2 in row below, Before ZnPTO 21.4 ± 4.8): 43.0%
Mass level of lipid: Fatty Acids (scalp stratum corneum; After ZnPTO: shampoo containing 1% ZnPTO, 3 washes per week, approx 4 weeks, half-head, spread 748.6 in row below, Before ZnPTO 364.9 ± 231.9): 1518.1 ng lipid per μg protein
Mass level of lipid: Cholesterol (scalp stratum corneum; After ZnPTO: shampoo containing 1% ZnPTO, approx 4 weeks, spread 221.8 in row below, Before ZnPTO 108.9 ± 44.3): 478.3 ng lipid per μg protein
Mass level of lipid: Ceramides (scalp stratum corneum; After ZnPTO: shampoo containing 1% ZnPTO, approx 4 weeks, spread 243.9 in row below, Before ZnPTO 284.3 ± 62.4): 841.5 ng lipid per μg protein
Mass level of lipid: Triglycerides (scalp stratum corneum; After ZnPTO: shampoo containing 1% ZnPTO, approx 4 weeks, spread 1911.2 in row below, Before ZnPTO 208.5 ± 77.1): 2539.7 ng lipid per μg protein
Mass level of lipid: Total Lipid (scalp stratum corneum; After ZnPTO: shampoo containing 1% ZnPTO, approx 4 weeks, spread 2056.0 in row below, Before ZnPTO 966.6 ± 282.5): 5377.6 ng lipid per μg protein
Ceramide 6i as % of total ceramides (scalp stratum corneum; After ZnPTO, spread 2.0 in row below, Before ZnPTO 9.2 ± 1.1): 8.0%
Ceramide 6ii as % of total ceramides (scalp stratum corneum; After ZnPTO, spread 2.1 in row below, Before ZnPTO 13.8 ± 2.1): 8.0%
Ceramide 3a as % of total ceramides (scalp stratum corneum; After ZnPTO, spread 2.8 in row below, Before ZnPTO 12.4 ± 1.7): 19.2%
Ceramide 3 as % of total ceramides (scalp stratum corneum; After ZnPTO, spread 4.0 in row below, Before ZnPTO 11.8 ± 3.9): 5.9%
Ceramide 1 as % of total ceramides (scalp stratum corneum; After ZnPTO, spread 5.3 in row below, Before ZnPTO 11.3 ± 4.1): 14.6%
Ceramide 2 as % of total ceramides (scalp stratum corneum; After ZnPTO, spread 5.4 in row below, Before ZnPTO 19.4 ± 4.5): 22.3%
Ceramide 4/5 as % of total ceramides (scalp stratum corneum; After ZnPTO, spread 5.9 in row below, Before ZnPTO 22.2 ± 3.0): 22.1%
Relative composition of the samples after treatment, placebo vs ZnPTO (scalp stratum corneum; after treatment): no significant differences
All the lipids measured, mass levels after ZnPTO treatment compared with before treatment (scalp stratum corneum; after vs before treatment): significantly increased
Change in relative % cholesterol with treatment (scalp stratum corneum; after vs before treatment): do not change
Change in relative % fatty acid with treatment (scalp stratum corneum; after vs before treatment): do not change
Change in relative % ceramide after treatment (scalp stratum corneum; after vs before treatment, also after placebo): significantly decreases
Change in % triglyceride after treatment (scalp stratum corneum; after vs before treatment, significant for ZnPTO): increase in % triglyceride, which is significant for ZnPTO
Change in relative % ceramide 6ii after treatment (scalp stratum corneum; after vs before, after both treatments): statistically significant decrease
Change in relative % ceramide 3a after treatment (scalp stratum corneum; [1]): increase in ceramide 3a
Change in relative % ceramide 3 after treatment (scalp stratum corneum; [1]): decrease in ceramide 3
Level of ceramide, side treated with ZnPTO vs side treated with placebo (scalp stratum corneum; sites sampled after treatment): significantly higher
Level of cholesterol, side treated with ZnPTO vs side treated with placebo (scalp stratum corneum; sites sampled after treatment): significantly higher
